Article PMC7845634 (mBio, 2021)
Like-named read-outs stand apart in the source and are kept apart here.

Columns and labels:
Type in all cases: cell-based
SARS-CoV-2 replicon = experiment: microbe, parasite or virus in culture; details: for IC50: Severe acute respiratory syndrome coronavirus 2, HEK-293T, read-out: IC50 upon replicon RNA synthesis (luciferase activity); for Result of compound library screening on replicon: Approved Drug Screening Library, final concentration 20 μM, 24 h treatment
[1] = system: GFP signal of ps2V plasmid
authentic SARS-CoV-2 = experiment: Authentic SARS-CoV-2 infection assay, viral RNA copies by RT-qPCR; details: Severe acute respiratory syndrome coronavirus 2, HEK-293T, 24 h, read-out: IC50 on authentic viruses (viral RNA copies)
IRES-CMV-luciferase = IRES-CMV-luciferase plasmid counter-assay in 293T cells
[2] = Homo sapiens, HEK-293T, read-out: IC50 on IRES-CMV-luciferase activity, 293T cells, drug added 24 to 30 h after transfection, 24 h treatment
[3] = 293T cells, drug added 24 to 30 h after transfection, 24 h treatment

SMILES | IC50 (SARS-CoV-2 replicon) [µM] | Effect on GFP signal [1] | Result of compound library screening on replicon (SARS-CoV-2 replicon) | IC50 (authentic SARS-CoV-2) [µM] | IC50 (IRES-CMV-luciferase; [2]) [µM] | IC50 on IRES-CMV-luciferase activity (IRES-CMV-luciferase; [3]) | IC50 (IRES-CMV-luciferase; 293T cells, drug added 24 to 30 h after transfection, 24 h treatment, read-out: IC50 on IRES-CMV-luciferase activity) [µM]
CC(C)c1nc(CN(C)C(=O)N[C@H](C(=O)N[C@@H](Cc2ccccc2)C[C@H](O)[C@H](Cc2ccccc2)NC(=O)OCc2cncs2)C(C)C)cs1 [ritonavir] | 14.8 ± 1.05 | little effect on GFP signal | – | – | – | – | –
C[C@@H]1O[C@@H](O[C@H]2C[C@@H](O)[C@]3(CO)[C@H]4[C@H](O)C[C@]5(C)[C@@H](C6=CC(=O)OC6)CC[C@]5(O)[C@@H]4CC[C@]3(O)C2)[C@H](O)[C@H](O)[C@H]1O [ouabain] | – | – | hit | – | – | – | –
COc1cccc2c1C(=O)c1c(O)c3c(c(O)c1C2=O)C[C@@](O)(C(=O)CO)C[C@@H]3O[C@H]1C[C@H](N)[C@H](O)[C@H](C)O1 [Adriamycin] | 0.824 ± 0.114 | – | – | 0.612 ± 0.228 | 17.8 | – | –
Cc1ccc(NC(=O)c2ccc(CN3CCN(C)CC3)cc2)cc1Nc1nc(-c2cccnc2)cs1 [masitinib] | 0.652 ± 0.0661 | – | – | 0.597 ± 0.341 | 8.64 | – | –
CC[C@H]1CN2CCc3cc(OC)c(OC)cc3[C@@H]2C[C@@H]1C[C@H]1NCCc2cc(OC)c(OC)cc21 [emetine] | 0.273 ± 0.0093 | little effect on GFP signal | hit | 0.155 ± 0.068 | – | – | –
C[C@H]1O[C@@H](O[C@H]2[C@@H](O)C[C@H](O[C@H]3[C@@H](O)C[C@H](O[C@H]4CC[C@@]5(C)[C@H](CC[C@@H]6[C@@H]5CC[C@]5(C)[C@@H](C7=CC(=O)OC7)CC[C@]65O)C4)O[C@@H]3C)O[C@@H]2C)C[C@H](O)[C@@H]1O [digitoxin] | – | – | hit | – | – | – | –
CCN(CC)C(=S)SSC(=S)N(CC)CC [disulfiram] | 9.32 ± 1.65 | little effect on GFP signal | – | – | – | – | –
C=CC(=O)Nc1cccc(Nc2nc(Nc3ccc(N4CCN(C(C)=O)CC4)cc3OC)ncc2C(F)(F)F)c1 [rociletinib] | 7.32 ± 1.21 | – | – | 11.2 ± 1.89 | – | no statistical significance | –
CCc1cc2c(cc1N1CCC(N3CCOCC3)CC1)C(C)(C)c1[nH]c3cc(C#N)ccc3c1C2=O [alectinib] | 0.564 ± 0.0175 | – | – | 0.14 ± 0.0913 | – | no statistical significance | –
CCC(CC)COC(=O)[C@H](C)N[P@](=O)(OC[C@H]1O[C@@](C#N)(c2ccc3c(N)ncnn23)[C@H](O)[C@@H]1O)Oc1ccccc1 [remdesivir] | 12.4 ± 1.08 | little effect on GFP signal | – | – | – | – | –
O=C1c2c(O)ccc(O)c2C(=O)c2c(NCCNCCO)ccc(NCCNCCO)c21 [mitoxantrone] | 0.338 ± 0.235 | – | – | 0.133 ± 0.0901 | 27.8 | – | 26.8 ± 1.2
Cc1cccc(C)c1OCC(=O)N[C@@H](Cc1ccccc1)[C@@H](O)C[C@H](Cc1ccccc1)NC(=O)[C@H](C(C)C)N1CCCNC1=O [lopinavir] | 6.79 ± 1.09 | little effect on GFP signal | – | – | – | – | –
